{
  "source": "patent US6723733B2",
  "about": "“Sulfonamide and carbamide derivatives of 6(5H)phenanthridinones and their uses” (Guilford Pharmaceuticals, Inc., priority 2000, dated 2004)",
  "key": {"[1]": {"tested_on": "rabbits", "conditions": "cited from earlier work"}, "[2]": {"tested_on": "Swiss albino mice", "assay": "MSU crystal-induced neutrophil recruitment (gout model, peritonitis)", "assay_type": "in vivo, mouse", "conditions": "45 mg/kg i.p.", "protocol": "Male outbread Swiss albino mice (20-22 g body weight) were purchased from Banton and Kingsman (T.O. strain; Hull, Humberside) and maintained on a standard chow pellet diet with tap water ad libitum and a 12:00 h light/dark cycle. All animals were housed for 1 week prior to experimentation to allow body weight to reach 28-30 g.\n1,1,1lb-dihydrobenzopyrano[4,3,2-de]isoquinolin-1-one was dissolved in 100% DMSO at room temperature at a concentration of 45 mg in 2 ml. The compound was then injected into the peritoneal cavity, so as each mouse received a single dose corresponding to 45 mg/2 ml/kg (e.g. 60 μl for a mouse of 30 g). […]\nMSU crystal-induced neutrophil recruitment was tested as follows. […] Peritonitis was induced by injection of 3 mg MSU crystals in 0.5 ml PBS (0.1 M, pH 7.4), and the recruitment of neutrophils into the cavity evaluated at the 6 h time point (Getting et al., 1997, J. Pharmacol. Exp. Ther. 283: 123-130). […]\nAn aliquot (100 μl) of the lavage fluid was then diluted 1:10 in Turk's solution (0.01% crystal violet in 3% acetic acid). The samples were then vortexed and 10 μl of the stained cell solution were placed in a Neubauer haematocymometer and neutrophils numbers counted using a light microscope (Olympus B061). […]\nData are shown for single mice, and also shown as mean±S.E. of (n) mice per group. Statistical differences were determined by ANOVA, plus Bonferroni test. […]"}},
  "data": [
    {"smiles": "NC(=O)c1cccc(N)c1", "note": "[3-amino-benzamide]", "values": [
      {"measurement": "reduction in infarct size in the heart", "setting": "[1]; single injection 10 mg/kg, one minute before occlusion or before reperfusion", "result": "32-42%"}
    ]},
    {"smiles": "O=C1N=Cc2cccc3c2C1c1ccccc1O3", "note": "(stereo not shown) [1,11b-dihydrobenzopyrano[4,3,2-de]isoquinolin-1-one]", "values": [
      {"measurement": "inhibition of cell influx vs. the vehicle group", "setting": "[2]; 6 h after MSU crystals", "result": 55, "unit": "%"},
      {"measurement": "Neutrophils (10^6 per mouse), mean ± S.E.", "setting": "[2]; group C, MSU crystals (3 mg), 6 h, n=8, P < 0.05 vs. vehicle group B (6.30 ± 0.33)", "result": "2.85 ± 0.34 (8) * 10^6 per mouse"}
    ]},
    {"smiles": "Oc1cccc2c(O)nccc12", "note": "[1,5-dihydroxyisoquinoline]", "values": [
      {"measurement": "reduction in infarct size", "setting": "[1]; single injection 1 mg/kg", "result": "38-48%"}
    ]}
  ]
}
